Source: publication PMC8924334, “Synthesis of [^11C]carbonyl-labeled cyclohexyl (5-(2-acetamidobenzo[d]thiazol-6-yl)-2-methylpyridin-3-yl)carbamate ([^11C-carbonyl]PK68) as a potential PET tracer for receptor-interacting protein 1 kinase” (EJNMMI Radiopharmacy and Chemistry, 2022)
Where “and” joins values, the source holds several entries; their conditions need not be identical. Identical values can stand only once.

Key:
[1] = Metabolite analysis in plasma and liver; format: in vivo, mice
Description: Following intravenous injection of [^11C]PK68 (37 MBq, 0.1 mL), the mice (8–9 weeks, 40.1 ± 5.3 g) were killed by cervical dislocation at 5, 15, 30, and 60 min. Blood and liver samples were obtained immediately. Each blood sample was centrifuged in a heparinized tube at 15,000 g for 2 min at 4 °C to separate the plasma. The supernatant was collected in a test tube containing CH3CN, and the resulting mixture was vortexed for 15 s, then centrifuged at 15,000 g for 2 min for deproteinization. The resulting supernatant was collected. Each liver sample was homogenized using a Silent Crusher S homogenizer (Rose scientific, Edmonton, Canada) in ice-cooled saline. The resulting homogenate was mixed with an equivalent amount of CH3CN, and centrifuged at 15,000 g for 2 min for deproteinization. An aliquot of the supernatant (0.1–1.0 mL) obtained from the plasma or liver homogenate was injected into the HPLC system with a radioactivity detector, and analyzed using a Capcell Pak C18 column (4.6 mm i.d. × 250 mm, Shiseido) with a mobile phase [CH3CN/H2O/TFA, (45/55/0.1, v/v/v)] at a flow rate of 1.0 mL/min. The percentage ratio of [^11C]PK68 (tR = 5.0 min) to total radioactivity (corrected for decay) on the HPLC chromatogram was calculated as % = (peak area for [^11C]PK68/total peak area) × 100.

RIPK1 = biological target: T1, RIPK1 (Mus musculus, UniProt Q60855); assay: Small-animal PET imaging, baseline and blocking with unlabeled PK68; format: in vivo, mice
T1 construct: RIPK1 in liver of healthy mouse would exist with nonnegligible level; from tissue; host or cells: living healthy mice; volumes of interest on heart, lung, liver, kidney, small intestine, muscle and brain
T1 sequence (Q60855 1-656): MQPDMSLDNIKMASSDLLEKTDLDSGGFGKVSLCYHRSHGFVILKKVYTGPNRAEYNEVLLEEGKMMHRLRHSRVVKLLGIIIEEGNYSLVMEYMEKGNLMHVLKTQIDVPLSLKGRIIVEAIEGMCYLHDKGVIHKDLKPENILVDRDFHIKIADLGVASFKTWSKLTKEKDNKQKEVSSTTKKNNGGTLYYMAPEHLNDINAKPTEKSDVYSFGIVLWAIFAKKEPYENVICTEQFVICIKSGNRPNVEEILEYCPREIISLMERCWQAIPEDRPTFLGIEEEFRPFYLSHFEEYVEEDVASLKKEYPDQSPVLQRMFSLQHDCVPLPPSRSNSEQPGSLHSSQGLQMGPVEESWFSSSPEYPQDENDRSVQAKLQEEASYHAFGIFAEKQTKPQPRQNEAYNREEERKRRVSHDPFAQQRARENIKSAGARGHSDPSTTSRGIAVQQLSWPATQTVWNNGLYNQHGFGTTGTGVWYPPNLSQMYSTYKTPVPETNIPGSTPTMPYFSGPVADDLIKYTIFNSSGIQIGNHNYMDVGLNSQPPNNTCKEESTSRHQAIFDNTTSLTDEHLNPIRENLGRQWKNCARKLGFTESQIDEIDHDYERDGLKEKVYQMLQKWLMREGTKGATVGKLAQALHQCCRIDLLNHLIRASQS
Description: Each mouse was anesthetized using 1.5% (v/v) isoflurane, and an intravenous catheter was inserted into its tail vein. The mice (10–14 weeks old, 48.1 ± 7.4 g) were subsequently maintained under anesthesia and secured in a custom-designed chamber placed in the center of a small-animal PET scanner (Inveon, Siemens Healthineers, Erlangen, Germany). After adjusting the target position for scanning, dynamic emission scans (in three-dimensional list mode) were performed for 60 min (1 min × 4 frames, 2 min × 8 frames, and 5 min × 8 frames). [^11C]PK68 (11–16 MBq) was injected via a tail vein catheter. The body temperature of each mouse was maintained at 37 °C using a heated (40 °C) water circulation system (T/Pump TP401, Gaymar Industries, NY, USA) during the PET scan. For the blocking study, the mice were pretreated with unlabeled PK68 (1 mg/kg) just before the injection of [^11C]PK68. The obtained dynamic PET images (0.6 mm slice thickness) were reconstructed by filtered-back projection using a Hanning filter, with a Nyquist cutoff of 0.5 cycles per pixel. The time–activity curves (TACs) of [^11C]PK68 were acquired using PMOD software (version 3.4, PMOD Technology, Zurich, Switzerland) from the volumes of interest, which were manually mapped onto the heart, lung, liver, kidney, small-intestine (part of duodenum), muscle, and brain. The radioactivity was decay-corrected to the injection time and is expressed as a standardized uptake value (SUV), normalized for injected radioactivity and body weight. The SUV was calculated according to the following formula: SUV = (radioactivity per milliliter tissue/injected radioactivity) × body weight (g). We also calculated the area under the curve (AUC) using TACs from 0 to 60 min.

[2] = blocking with unlabeled PK68 1 mg/kg i.v.

unchanged [11C]PK68 in liver ([1]; 5 min after injection): 85% | unchanged [11C]PK68 in plasma ([1]; 5 min after injection): 85% | unchanged [11C]PK68 in liver ([1]; 15 min after injection): 67% | unchanged [11C]PK68 in plasma ([1]; 15 min after injection): 66% | unchanged [11C]PK68 in liver ([1]; 30 min after injection): 68% | unchanged [11C]PK68 in plasma ([1]; 30 min after injection): 65% | unchanged [11C]PK68 in liver ([1]; 60 min after injection): 57% | unchanged [11C]PK68 in plasma ([1]; 60 min after injection): 57% and > 50% | peak radioactivity in kidney (RIPK1; baseline): 2.7 SUV | peak radioactivity in liver (RIPK1; baseline): 4.8 SUV | uptake of radioactivity by the brain (RIPK1; baseline mice, PET, i.v.): < 0.3 SUV | time of peak radioactivity in kidney (RIPK1; baseline, after injection): 1.5 min | time of peak radioactivity in liver (RIPK1; baseline, after injection): 2.5 min | peak radioactivity in kidneys (RIPK1; [2]): 2.3 SUV | peak radioactivity in liver (RIPK1; [2]): 4.2 SUV | specific binding for RIPK1 in PET imaging (RIPK1; healthy mice): no obvious specific binding | difference in AUC (0-60 min) in liver and kidney, baseline vs blocking (RIPK1; n = 2 per group): no significant differences | reduction of maximum SUV in liver and kidney by blocking (RIPK1; unlabeled PK68 1 mg/kg i.v.): roughly 15%
Structure (SMILES): Cc1ncc(-c2ccc3nc(N[11C](C)=O)sc3c2)cc1NC(=O)OC1CCCCC1 [[^11C]PK68, Cyclohexyl (5-(2-[^11C-carbonyl]acetamidobenzo[d]thiazol-6-yl)-2-methylpyridin-3-yl)carbamate]
